For data set [1], the system named is Neutrophil. The data set is described as follows: Inhibition of FMLP/CB-induced superoxide anion generation in human neutrophils at 10 ug/ml by ferricytochrome c reduction method. The class given is functional.
For data set [2], the system named is Neutrophil. In words: Inhibition of FMLP/CB-induced superoxide anion generation in human neutrophils by ferricytochrome c reduction method. The class given is functional, cell-based.
The subject of data set [3] is Neutrophil. In words: Inhibition of FMLP/CB-induced elastase release in human neutrophils at 10 ug/ml after 5 mins by spectrophotometry. Format: functional.
In data set [4] the test system is RAW264.7. The data set is described as follows: Inhibition of NO production in LPS/IFN-gamma activated mouse RAW264.7 cells after 24 hrs by Griess assay. The class given is functional, cell-based. (In general: Griess reagent forms a coloured azo dye with nitrite.)
For data set [5], the system named is Neutrophil. The data set is described as follows: Inhibition of FMLP/CB-induced elastase release in human neutrophils after 5 mins by spectrophotometry. Format: functional, cell-based.
Data set [6] in a line: Cytotoxicity against human neutrophils at 10 ug/ml after 15 mins by LDH release assay. Particulars: neutrophil, 0.25 h; call rule not given here. Format: cell-based.
[7] abbreviates: Mus musculus, RAW264.7, 24 h, read-out: IC50.

In brackets after ≈: the same amount, converted by molar mass. Where only a bound is given, the exact number is not on record here.

The inhibition is the drop in the measured response relative to a control, in per cent. The IC50 is the concentration needed to halve the response being measured.

Turning to `C=C(C)C(=O)O[C@H]1[C@H]2C(=C)C(=O)O[C@@H]2/C=C(\CO)CC/C=C(/C=O)[C@H]1O`, the inhibition at 10 µg/mL in data set [1] is 9.01%; in data set [3] it was 20.8%. Moreover, the concentration for half-maximal inhibition (IC50) was more than 10 µg/mL in data set [2], “Not Active” in data set [4] (raw264.7) and more than 10 µg/mL in data set [5].

For the compound `C[C@@]12C[C@H](O)C[C@@](C)(C(=O)O)[C@H]1CCC1=C[C@@](C)(C(O)CO)CC[C@H]12` (stereo partly drawn), the values for the inhibition at 10 µg/mL in data set [1] and in data set [3] were 5.18% and 7.65%, respectively. Also, the IC50 in data set [2] and in data set [5] was more than 10 µg/mL each time.

On to `CC1(C)OCC([C@]2(C)C=C3CC[C@@H]4[C@](C)(CO)C[C@@H](O)C[C@@]4(C)[C@@H]3CC2)O1` (stereo partly drawn), for which the inhibition at 10 µg/mL in data set [1] was found to be 38.4%; in data set [3] it was 21.8%. Also, the IC50 in data set [2] and in data set [5] was more than 10 µg/mL throughout.

As for `CC(=O)OCC(O)[C@]1(C)C=C2CC[C@@H]3C(C)(C)[C@H](O[C@@H]4O[C@H](CO)[C@@H](O)[C@H](O)[C@H]4O)CC[C@@]3(C)[C@@H]2CC1` (stereo partly drawn), the values for the inhibition at 10 µg/mL in data set [1] and in data set [3] were 8.87% and 4.44%, respectively. Besides, the IC50 in data set [2] and in data set [5] was more than 10 µg/mL in each case.

On to `C[C@@]12CCC[C@@](C)(C(=O)O)[C@H]1CC[C@@]13C[C@H](CC[C@H]12)[C@H](C(=O)O)C3`, for which the inhibition at 10 µg/mL in data set [1] worked out at 69.6%; in data set [3], 31.5%. Further, the IC50 in data set [2] was 5.59 µg/mL (≈ 16.7 µM); in data set [5], more than 10 µg/mL. For the same compound, in data set [6], the Activity entry is given as “Non-toxic”.

For the compound `CC(=O)OC[C@@]1(C(=O)O)CCC[C@@]2(C)[C@@H]3CC[C@H]4C[C@@]3(CC[C@H]12)C[C@@]4(O)CO`, the inhibition at 10 µg/mL came out at 32.1% in data set [1] and 37% in data set [3]. Further, the IC50 in data set [2] and in data set [5] was more than 10 µg/mL each time.

On to `CC1(C)[C@H]2CCC3=C[C@@](C)(C(O)CO)CC[C@H]3[C@]2(C)CC[C@H]1O[C@@H]1O[C@H](CO)[C@@H](O)[C@H](O)[C@H]1O` (stereo partly drawn), for which the inhibition at 10 µg/mL in data set [1] is 5.86%; in data set [3] it was 5.93%. Also, the IC50 in data set [2] and in data set [5] was more than 10 µg/mL each time.

For the compound `C=C1C(=O)O[C@@H]2C[C@]3(C)[C@@H](CCC(C)=O)[C@@H]3C[C@H]12`, the inhibition at 10 µg/mL was determined as 41.2% in data set [1] and 11.2% in data set [3]. For the same compound, the IC50 in data set [2] is more than 10 µg/mL; in data set [4] (setting [7]), 6.4 µM; in data set [5] it was more than 10 µg/mL.

In the case of `C=C(C)C(=O)O[C@H]1[C@H]2C(=C)C(=O)O[C@@H]2/C=C(\CO)CC/C=C(/C=O)[C@H]1OCC`, the inhibition at 10 µg/mL in data set [1] was determined as 72.4%; in data set [3], 22.3%. The IC50 in data set [2] is 6.46 µg/mL (≈ 16.5 µM); in data set [4] (setting [7]), 6.8 µM; in data set [5], more than 10 µg/mL. In addition, the Activity result in data set [6] is “Non-toxic”.

`C[C@@]12CCC[C@@](C)(C(=O)O)[C@H]1CC[C@]13C[C@H](CO)[C@@H](CC[C@H]12)C3`: the inhibition at 10 µg/mL came to 89.5% in data set [1] and 45.9% in data set [3]. Further, the values for the IC50 in data set [2] and in data set [5] were 3.72 µg/mL (≈ 11.6 µM) and more than 10 µg/mL, respectively. For the same compound, in data set [6], the Activity result is “Non-toxic”.

For `CC(=O)OC[C@@]1(C(=O)O)CCC[C@@]2(C)[C@@H]3CC[C@H]4C[C@@]3(CC[C@H]12)C[C@H]4COC(=O)C(C)C`, the values for the inhibition at 10 µg/mL in data set [1] and in data set [3] were 35.2% and 77.8%, respectively. For the same compound, the IC50 was more than 10 µg/mL in data set [2] and 3.64 µg/mL (≈ 8.11 µM) in data set [5]. Also, the Activity result in data set [6] is recorded as “Non-toxic”.

Consider `CC(=O)OC[C@@]1(C(=O)O)CCC[C@@]2(C)[C@@H]3CC[C@H]4C[C@@]3(CC[C@H]12)C[C@@]4(O)COC(=O)C(C)C`, for which the results for the inhibition at 10 µg/mL in data set [1] and in data set [3] were 46.7% and 60.4%, respectively. For the same compound, the figures for the IC50 in data set [2] and in data set [5] were more than 10 µg/mL and 6.82 µg/mL (≈ 14.7 µM), respectively. Further, in data set [6], the Activity entry is recorded as “Non-toxic”.

For the compound `C[C@]1(CO)[C@H]2CCC3=C[C@@](C)(C(O)CO)CC[C@H]3[C@]2(C)CC[C@H]1O` (stereo partly drawn), the inhibition at 10 µg/mL in data set [1] was 17.8%; in data set [3], -0.74%. The half-maximal inhibitory concentration (IC50) in data set [2] and in data set [5] was more than 10 µg/mL throughout.

`O=c1cc(N2CCOCC2)oc2c(-c3ccccc3)cccc12` [LY-294002]: the IC50 in data set [2] is 0.4 µg/mL (≈ 1.3 µM); in data set [5], 0.92 µg/mL (≈ 2.99 µM).

Regarding `CC(C)C(=O)OC[C@@H]1C[C@@]23CC[C@@H]4[C@](CO)(C(=O)O)CCC[C@@]4(C)[C@@H]2CC[C@H]1C3`, the results for the inhibition at 10 µg/mL in data set [1] and in data set [3] were 67% and 83.2%, respectively. The IC50 was found to be 6.74 µg/mL (≈ 16.6 µM) in data set [2] and 4.73 µg/mL (≈ 11.6 µM) in data set [5]. Moreover, the Activity result in data set [6] is reported as “Non-toxic”.

`CC1=CC(=O)CC(C)(C)[C@@]1(O)/C=C/C(C)O` (stereo partly drawn): the inhibition at 10 µg/mL in data set [1] stood at 3.57%; in data set [3], 3.42%. Moreover, the IC50 was more than 10 µg/mL in data set [2], “Not Active” in data set [4] (raw264.7) and more than 10 µg/mL in data set [5].

Regarding `C[C@@]1(CO)C[C@@H](O)C[C@@]2(C)[C@@H]3CC[C@](C)(C(O)CO)C=C3CC[C@H]12` (stereo partly drawn), the inhibition at 10 µg/mL is 7.88% in data set [1] and 6.78% in data set [3]. Also, the concentration for half-maximal inhibition (IC50) in data set [2] and in data set [5] was more than 10 µg/mL each time.

Take `C[C@@]1(CO)CC(=O)C[C@@]2(C)[C@@H]3CC[C@](C)(C(O)CO)C=C3CC[C@H]12` (stereo partly drawn): the inhibition at 10 µg/mL in data set [1] was 10.2%; in data set [3] it was -0.75%. The IC50 in data set [2] and in data set [5] was more than 10 µg/mL each time.

In the case of `CC1(C)C[C@H]2[C@H]1CC[C@@]1(C)C[C@]2(O)CC[C@@H]1O`, the inhibition at 10 µg/mL stood at 10.2% in data set [1] and 5.93% in data set [3]. Besides, the 50% inhibitory concentration (IC50) was more than 10 µg/mL in data set [2], “Not Active” in data set [4] (raw264.7) and more than 10 µg/mL in data set [5].

`CC1(C)[C@H](O)CC[C@@]2(C)[C@@H]3CC[C@](C)(C(O)CO)C=C3CC[C@H]12` (stereo partly drawn): the inhibition at 10 µg/mL in data set [1] was found to be 35.8%; in data set [3] it was 21.9%. The half-maximal inhibitory concentration (IC50) in data set [2] and in data set [5] was more than 10 µg/mL in each case.

For `C[C@@]12CCC[C@@](CO)(C(=O)O)[C@H]1CC[C@]13C[C@@H](CO)[C@@H](CC[C@H]12)C3`, the inhibition at 10 µg/mL in data set [1] stood at 7.81%; in data set [3], 15.7%. For the same compound, the IC50 in data set [2] and in data set [5] was more than 10 µg/mL throughout.

As for `C[C@@]12CCC[C@@](C)(C(=O)O)[C@H]1CC[C@@]13C[C@H](CC[C@H]12)[C@@](O)(CO)C3`, the inhibition at 10 µg/mL in data set [1] stood at 89.2%; in data set [3], 70.8%. Also, the values for the IC50 in data set [2] and in data set [5] were 3.63 µg/mL (≈ 10.8 µM) and 4.34 µg/mL (≈ 12.9 µM), respectively. The Activity result in data set [6] is “Non-toxic”.

Consider `C=C1C(=O)O[C@H]2C[C@@H](C)[C@@H]3CC[C@H](O)[C@@]3(C)C[C@H]12` [PSEUDOGUAIANOLIDE], for which the figures for the inhibition at 10 µg/mL in data set [1] and in data set [3] were 17% and 46.9%, respectively. Besides, the IC50 was more than 10 µg/mL in data set [2], 14.9 µM in data set [4] (setting [7]) and more than 10 µg/mL in data set [5].

`COC(=O)[C@]1(C)CCC[C@@]2(C)[C@@H]3CC[C@@H]4C[C@@]3(CC[C@@H]21)C[C@@H]4CO`: the inhibition at 10 µg/mL was determined as 90.7% in data set [1] and 27.7% in data set [3]. The IC50 was 5.22 µg/mL (≈ 15.6 µM) in data set [2] and more than 10 µg/mL in data set [5]. The Activity entry in data set [6] is “Toxic”.

With `C=C1C(=O)O[C@@H]2C[C@]3(C)[C@@H](CCC(C)O)[C@@H]3C[C@H]12` (stereo partly drawn), the inhibition at 10 µg/mL in data set [1] stood at 11.6%; in data set [3] it was 39%. The 50% inhibitory concentration (IC50) in data set [2] is more than 10 µg/mL; in data set [4] (setting [7]), 18.9 µM; in data set [5], more than 10 µg/mL.

Values taken from ChEMBL document CHEMBL3352285, “In vitro anti-inflammatory effects of diterpenoids and sesquiterpenoids from traditional Chinese medicine Siegesbeckia pubescens” (Bioorg Med Chem Lett, 2014).
